Where two headings read alike, the source gives them in different places.
Assays:
PKA-N-HiBiT [1] = target: T1, PKA-N-HiBiT (Homo sapiens, UniProt P17612); experiment: SDR assay, PKA-N-HiBiT; details: for SDR Ave Max Response / EC50: PKA-N-HiBiT qHTS, SDR assay; for SDR Ave Max Response: average maximal response; for EC50: read-out: PKA SDR Ave SDR50, average
[2] = target: T2, ABL1-N-HiBiT kinase domain (Homo sapiens, UniProt P00519); experiment: SDR assay, ABL1-N-HiBiT; details: for ABL1 SDR pSDR50: heatmap data, 128 kinase inhibitors; for EC50: read-out: SDR Ave SDR50, average, unit inferred
T2 sequence (P00519 233-500): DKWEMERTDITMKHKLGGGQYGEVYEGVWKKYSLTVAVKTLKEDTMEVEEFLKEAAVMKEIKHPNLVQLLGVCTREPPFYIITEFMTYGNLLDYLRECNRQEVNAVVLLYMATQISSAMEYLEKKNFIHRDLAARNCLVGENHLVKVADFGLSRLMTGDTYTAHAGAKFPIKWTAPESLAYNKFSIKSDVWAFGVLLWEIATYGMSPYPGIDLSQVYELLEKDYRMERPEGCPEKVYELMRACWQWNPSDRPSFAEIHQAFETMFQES

PKA = details: annotation yes/no for kinase library compound; source not given; cited from earlier work
ABL1 = details: cited from earlier work
[3] = target: T2, ABL1-N-HiBiT kinase domain; experiment: ABL1 peptide phosphorylation, Kinase-Glo Plus (KGP) assay, ABL1-N-HiBiT; assay type: biochemical; parameters: containing amino acid residues Asp233-Ser500; His10 (N); made in house; host or cells: E. coli BL21(DE3); details: for ABL1 KGP pIC50: ABL1, Kinase-Glo Plus (KGP), heatmap data, 128 kinase inhibitors; for IC50: ABL1-N-HiBiT qHTS, average, unit inferred, read-out: ABL1 KGP Ave IC50
Procedure: (§1) Kinase activity was measured by ATP depletion using the Kinase-Glo Plus (KGP) assay kit (Promega) in 1536-well plate format. […] Controls were added with a Mosquito dispenser (STP LabTech) while compounds were transferred with a pintool to each plate as described in Supplementary Data 8 and incubated for 30 min at ambient temperature. […] Following a 10 min incubation, KGP luminescence was measured with a ViewLux plate reader with 1 sec exposure, with medium to high gain setting, slow speed and 2x binning. Data were normalized to the average of no enzyme control column as 100% kinase inhibition and DMSO control column as 100% phosphorylation reaction progress. See Supplementary Table 5 for additional details.
(§2) Protocol for Abelson kinase (ABL1) and protein kinase A (PKA) peptide phosphorylation assays
(§3) Supplementary Table 5: Protocol for Abelson kinase (ABL1) and protein kinase A (PKA) peptide phosphorylation assays Sequence Param eter Value Description
(§4) 3 Incubation 30 m in Incubate enzym e + com pounds at am bient tem p for 30 m in, protected from light […]
(§5) protocol; dispensed with BioRaptr 2

PKA-N-HiBiT [4] = target: T1, PKA-N-HiBiT; experiment: PKA peptide phosphorylation, Kinase-Glo Plus (KGP) assay, PKA-N-HiBiT; assay type: biochemical; parameters: containing amino acids Gly2-Phe351; His10 (N); made in house; host or cells: E. coli BL21(DE3)
Procedure: as §1, §2, §3, §4, §5

DHFR-C-HiBiT = target: T3, DHFR-C-HiBiT (Homo sapiens, UniProt P00374); experiment: SDR assay, purified DHFR-C-HiBiT; details: DHFR-C-HiBiT 0.5 nM, 5 μM NADPH (SDR) vs 100 nM, 75 μM NADPH (functional)
T3 sequence (P00374 2-187): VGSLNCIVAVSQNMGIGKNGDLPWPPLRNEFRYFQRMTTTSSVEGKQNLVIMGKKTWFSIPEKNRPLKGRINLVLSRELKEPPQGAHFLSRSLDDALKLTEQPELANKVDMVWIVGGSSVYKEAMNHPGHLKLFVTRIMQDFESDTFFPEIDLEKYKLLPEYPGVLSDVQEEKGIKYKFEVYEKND

[5] = ABL1-N-HiBiT qHTS, average maximal SDR response

Compound	SDR Ave Max Response (PKA-N-HiBiT [1])	ABL1 SDR pSDR50 [2]	SDR Ave Max Response [2, 5]	EC50 ([2]; ABL1-N-HiBiT qHTS) [µM]	Annotated PKA activity (PKA)	Annotated ABL1 activity (ABL1)	further results
C/C(O)=C(\C#N)C(=O)Nc1cc(Br)ccc1Br [LFM-A13]	-81.79	5.44	-82.68	3.72	no	no	EC50 (PKA-N-HiBiT [1]): 4140 nM; PKA SDR Assay Mean (pSDR50) (PKA-N-HiBiT [1]; without ATP): 5.40
CC(C)(C)n1nc(-c2cccc3ccccc23)c2c(N)ncnc21 [1-Naphthyl PP1]	10.40		61.87		no	yes	
COc1ccccc1-c1c[nH]c2ncc(-c3cncc(C(=O)N(C)C)c3)cc12 [PPY A]	11.97	8.52	88.01	0.00304	no	yes	ABL1 KGP pIC50 [3]: 7.53; IC50 [3]: 34.1 nM
PF-477736	33.34	6.38	81.41	0.432	no		EC50 (PKA-N-HiBiT [1]): 1290 nM; ABL1 KGP pIC50 [3]: 6.01; IC50 [3]: 1040 nM; IC50 (PKA-N-HiBiT [4]; PKA-N-HiBiT qHTS, Kinase-Glo Plus, average, read-out: PKA KGP Ave IC50): 5.32 µM
O=[N+]([O-])O[C@H]1CO[C@H]2[C@@H]1OC[C@H]2O[N+](=O)[O-] [Isosorbide dinitrate]	6.02		6.72		no	no	
CCN(CC)CCOc1ccc(Nc2ncc3cc(-c4c(Cl)cccc4Cl)c(=O)n(C)c3n2)cc1.Cl.Cl.O [PD-166285 hydrate]	-22.35		51.60		no	yes	
COc1cc2c(N3CCN(C(=O)Nc4ccc(OC(C)C)cc4)CC3)ncnc2cc1OCCCN1CCCCC1 [Tandutinib]	7.68				no	no	SDR Ave Max Response [2]: 63.54
N#Cc1cn([C@@H]2O[C@H](CO)[C@@H](O)[C@H]2O)c2ncnc(N)c12 [Toyocamycin]	-0.53	4.93	72.44	12.8	no	no	
CN(Cc1cnc2nc(N)nc(N)c2n1)c1ccc(C(=O)NC(CC(F)C(=O)O)C(=O)O)cc1 (stereo not shown) [γ-fluoromethotrexate]							enhanced sensitivity in the SDR assay format versus functional DHFR assay (DHFR-C-HiBiT): ~ 100 fold
COc1ccc(S(=O)(=O)N(C(C)=O)c2ccccc2/C=C/c2cc[n+]([O-])cc2)cc1 [HMN-214]	5.93		8.52		no	no	
O=c1c(O)c(-c2ccc(O)c(O)c2)oc2cc(O)cc(O)c12 [Quercetin]	-5.00		48.80	9.18	no		IC50 [3]: 5880 nM; Efficacy (PKA-N-HiBiT [4]; KGP Rep 1): -15.69; Hill Coef (PKA-N-HiBiT [4]; KGP Rep 1): 1.22; Max Resp (PKA-N-HiBiT [4]; KGP Rep 1): 9.03; CC-v2 (PKA-N-HiBiT [4]; KGP Rep 1, curve class): 4

Source: publication PMC12064818, “A general assay platform to study protein pharmacology using ligand-dependent structural dynamics” (Nature Communications, 2025)
